The values below come from US11214578B2, “Urea/carbamates FAAH MAGL or dual FAAH/MAGL inhibitors and uses thereof” (Northeastern University, priority 2014, dated 2022).

SMILES strings stand for the structures. A value given as a limit tells only on which side of the number the result lay.

Holding throughout (type): biochemical
The target of one experiment is T1, Rat MAGL (rMAGL) (Rattus norvegicus, UniProt Q8R431).
T1 construct: made in house; host or cells: E. coli
T1 sequence (Q8R431 1-303): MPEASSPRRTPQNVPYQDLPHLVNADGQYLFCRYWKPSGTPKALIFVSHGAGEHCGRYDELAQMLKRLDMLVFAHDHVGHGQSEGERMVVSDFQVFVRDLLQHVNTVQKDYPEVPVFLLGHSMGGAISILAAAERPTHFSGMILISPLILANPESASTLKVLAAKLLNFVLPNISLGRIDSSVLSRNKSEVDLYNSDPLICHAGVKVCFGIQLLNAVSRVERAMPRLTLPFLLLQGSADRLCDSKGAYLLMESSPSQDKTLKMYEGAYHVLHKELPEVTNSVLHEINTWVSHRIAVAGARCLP
Kind of experiment: Fluorescent assay protocol for rMAGL. The settings on record: recombinant rat MAGL, procedure as for hMAGL; read-out: IC50 rMAGL. The method, boiled down: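 Rat MAGL run as for the human enzyme: AHMMCE substrate hydrolysis to fluorescent coumarin followed at 25° C. for 120 min, read every 15 min at 360/460 nm.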

The next experiment concerns the target T2, Human MAGL (hMAGL) (Homo sapiens, UniProt Q99685).
T2 construct: hexahistidine; made in house; host or cells: E. coli
T2 sequence (Q99685 1-303): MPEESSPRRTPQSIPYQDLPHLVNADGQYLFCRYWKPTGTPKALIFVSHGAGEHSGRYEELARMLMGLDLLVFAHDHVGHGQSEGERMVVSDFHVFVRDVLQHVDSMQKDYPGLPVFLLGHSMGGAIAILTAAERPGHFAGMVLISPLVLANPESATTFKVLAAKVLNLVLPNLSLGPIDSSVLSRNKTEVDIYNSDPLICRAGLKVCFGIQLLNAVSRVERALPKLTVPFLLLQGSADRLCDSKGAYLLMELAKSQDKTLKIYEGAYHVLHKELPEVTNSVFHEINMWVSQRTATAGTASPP
In words: Fluorescent assay protocol for hMAGL (AHMMCE substrate). The following applies: recombinant human MAGL, AHMMCE substrate, 15 min preincubation; read-out: IC50 hMAGL. The method, boiled down:
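Hydrolysis of AHMMCE by human MAGL was monitored at 25°C for 120 min, with fluorescence at 360/460 nm recorded every 15 min and converted to 4-methylcoumarin using external standards. IC50 values were derived from triplicate wells at each inhibitor concentration.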

In another experiment the target is T3, Human FAAH (MBPΔTMhFAAH) (Homo sapiens, UniProt O00519).
T3 construct: made in house; host or cells: E. coli (pMALcE4 vector)
T3 sequence (O00519 30-579 limits assumed): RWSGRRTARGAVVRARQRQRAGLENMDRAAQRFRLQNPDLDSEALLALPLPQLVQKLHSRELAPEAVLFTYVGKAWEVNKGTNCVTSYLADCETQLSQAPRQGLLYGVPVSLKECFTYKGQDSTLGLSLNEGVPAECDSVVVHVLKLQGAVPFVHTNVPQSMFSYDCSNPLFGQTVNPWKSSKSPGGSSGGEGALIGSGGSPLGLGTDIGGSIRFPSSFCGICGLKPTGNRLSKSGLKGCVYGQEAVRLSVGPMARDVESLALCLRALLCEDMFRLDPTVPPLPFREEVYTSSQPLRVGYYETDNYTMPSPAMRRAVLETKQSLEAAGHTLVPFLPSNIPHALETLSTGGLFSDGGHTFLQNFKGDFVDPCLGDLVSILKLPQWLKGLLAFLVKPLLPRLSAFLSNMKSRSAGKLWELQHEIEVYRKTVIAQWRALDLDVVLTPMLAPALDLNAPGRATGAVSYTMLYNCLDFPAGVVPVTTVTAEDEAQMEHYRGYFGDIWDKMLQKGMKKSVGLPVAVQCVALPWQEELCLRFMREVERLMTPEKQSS
In words: Fluorescent assay protocol for hFAAH. The following applies: human FAAH (MBP fusion, ΔTM), procedure as for rFAAH. The procedure, abridged:
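MBP-fused ΔTM human FAAH from E. coli, pre-incubated 15 min at 25 °C with compound in 50 mM HEPES, 1 mM EDTA, 0.1% BSA, pH 7.4 (DMSO below 8%). Substrate AAMCA 20 μM (2×Km); fluorescence (ex 360/em 460) at 3 h gave % inhibition vs uninhibited control, triplicate, IC50 fitted.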

The target in the next experiment is T4, ΔTM rat FAAH (Rattus norvegicus, UniProt P97612).
T4 construct: Preparation of Transmembrane Domain-Deleted Rat FAAH (ΔTM rFAAH); made in house; host or cells: E. coli
T4 sequence (P97612 30-579 limits assumed): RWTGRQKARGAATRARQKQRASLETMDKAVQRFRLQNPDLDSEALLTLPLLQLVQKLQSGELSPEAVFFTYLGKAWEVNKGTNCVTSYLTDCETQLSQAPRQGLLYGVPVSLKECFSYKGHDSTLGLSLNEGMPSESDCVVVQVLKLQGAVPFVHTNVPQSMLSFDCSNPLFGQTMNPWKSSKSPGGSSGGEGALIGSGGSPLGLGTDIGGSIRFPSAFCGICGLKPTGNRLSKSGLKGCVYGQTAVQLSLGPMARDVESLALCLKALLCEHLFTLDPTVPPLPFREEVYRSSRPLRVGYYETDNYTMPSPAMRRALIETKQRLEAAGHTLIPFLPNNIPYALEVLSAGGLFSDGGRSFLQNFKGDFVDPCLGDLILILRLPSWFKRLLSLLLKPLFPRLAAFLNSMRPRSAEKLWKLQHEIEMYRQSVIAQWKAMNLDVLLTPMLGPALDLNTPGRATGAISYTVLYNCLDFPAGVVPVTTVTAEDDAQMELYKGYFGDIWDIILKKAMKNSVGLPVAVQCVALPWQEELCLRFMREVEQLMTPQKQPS
In words: Fluorescent assay protocol for ΔTM rat FAAH (AAMCA substrate). The following applies: 15 min preincubation, read-out: IC50 rFAAH. The method, boiled down:
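ΔTM rat FAAH (15 μg) was pre-incubated 15 min at 25° C with compound (screening at 1, 10 and 100 μM), then reacted with the fluorigenic substrate AAMCA. Percent inhibition came from fluorescence at 3 h (linear kinetics) relative to no-inhibitor controls, in triplicate.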

One may read the IC50 as the concentration needed to halve the response being measured.

For the compound `N#Cc1cccc(-c2cccc(NC(=O)N3C[C@@H]4C[C@H]3CN4Cc3ccc4ccccc4n3)c2)c1` [Example 93, (1S,4S)—N-(3′-cyano-[1,1′-biphenyl]-3-yl)-5-(quinolin-2-ylmethyl)-2,5-diazabicyclo[2.2.1]heptane-2-carboxamide], the IC50 on Rat MAGL (rMAGL), at Human MAGL (hMAGL), at Human FAAH (MBPΔTMhFAAH) and on ΔTM rat FAAH was over 1000 nM throughout.
As to `N#Cc1cccc(OC(=O)N2CCC(=C(c3ccccc3)c3ccccc3)CC2)c1` [Example 47, 3-cyanophenyl 4-(diphenylmethylene)piperidine-1-carboxylate], the IC50 was over 1000 nM at Rat MAGL (rMAGL), over 1000 nM on Human MAGL (hMAGL), 10 to 100 nM on Human FAAH (MBPΔTMhFAAH) and 10 to 100 nM at ΔTM rat FAAH.
For `O=C(N1CC(OCc2ccc(Br)cc2)C1)n1cnc2ccccc21` [Example 87, (1H-Benzo[d]imidazol-1-yl)(3-(4-Bromobenzyloxy)azetidin-1-yl)methanone], the IC50 at Rat MAGL (rMAGL), on Human MAGL (hMAGL), on Human FAAH (MBPΔTMhFAAH) and on ΔTM rat FAAH was 10 to 100 nM throughout.
With `N#Cc1cccc(-c2cccc(NC(=O)N3CCC4(CC3)CC(=O)c3ccccc3O4)c2)c1` [Example 20, N-(3′-cyano-[1,1′-biphenyl]-3-yl)-4-oxospiro[chromane-2,4′-piperidine]-1′-carboxamide], the IC50 on Rat MAGL (rMAGL) was over 1000 nM; at Human MAGL (hMAGL), over 1000 nM; at Human FAAH (MBPΔTMhFAAH), 110 to 1000 nM; at ΔTM rat FAAH, 110 to 1000 nM.
As to `O=C(N1CC(N2CCC(c3ccccc3)CC2)C1)n1cnc(-c2ccccc2)c1` [Example 85, (4-Phenyl-1H-imidazol-1-yl)(3-(4-phenylpiperidin-1-yl)azetidin-1-yl)methanone], the half-inhibitory concentration (IC50) on Rat MAGL (rMAGL) was over 1000 nM; on Human MAGL (hMAGL), over 1000 nM; on Human FAAH (MBPΔTMhFAAH), 10 to 100 nM; at ΔTM rat FAAH, 10 to 100 nM.
For the compound `NC(=O)c1cccc(-c2cccc(NC(=O)N3CCN(Cc4ccc5ccccc5n4)CC3)c2)c1` [Example 12, N-(3′-carbamoyl-[1,1′-biphenyl]-3-yl)-4-(quinolin-2-ylmethyl)piperazine-1-carboxamide], the 50% inhibitory concentration (IC50) on Rat MAGL (rMAGL) is over 1000 nM; on Human MAGL (hMAGL) it was over 1000 nM; at Human FAAH (MBPΔTMhFAAH) it was 10 to 100 nM; on ΔTM rat FAAH, 10 to 100 nM.
On to `O=C(Oc1c(F)cccc1F)N1CCC(S(=O)(=O)c2ccc(Br)cc2)CC1` [Example 63, 2,6-Difluorophenyl 4-(4-bromophenylsulfonyl)piperidine-1-carboxylate], for which the half-inhibitory concentration (IC50) was 110 to 1000 nM at Rat MAGL (rMAGL), 110 to 1000 nM at Human MAGL (hMAGL), over 1000 nM at Human FAAH (MBPΔTMhFAAH) and over 1000 nM on ΔTM rat FAAH.
In the case of `O=C(N1CC(N2CCC(c3ccccc3)CC2)C1)n1cnc2ccccc21` [Example 83, (1H-Benzo[d]imidazol-1-yl)(3-(4-phenylpiperidin-1-yl)azetidin-1-yl)methanone], the IC50 on Rat MAGL (rMAGL) is over 1000 nM; at Human MAGL (hMAGL) it was over 1000 nM; at Human FAAH (MBPΔTMhFAAH), 10 to 100 nM; at ΔTM rat FAAH, 10 to 100 nM.
Regarding `O=C(Oc1cccc(N2CCS(=O)(=O)CC2)c1)N1CCN(Cc2ccc3ccccc3n2)CC1` [Example 72, 3-(1,1-dioxidothiomorpholino)phenyl 4-(quinolin-2-ylmethyl)piperazine-1-carboxylate], the IC50 on Rat MAGL (rMAGL), on Human MAGL (hMAGL), on Human FAAH (MBPΔTMhFAAH) and at ΔTM rat FAAH was 110 to 1000 nM each time.
Take `O=C(Oc1cccc(Cl)n1)N1CCN(C(c2ccccc2)c2ccccc2)CC1` [Example 39, 6-chloropyridin-2-yl 4-benzhydrylpiperazine-1-carboxylate]: the half-maximal inhibitory concentration (IC50) on Rat MAGL (rMAGL) is over 1000 nM; on Human MAGL (hMAGL), over 1000 nM; on Human FAAH (MBPΔTMhFAAH), 110 to 1000 nM; at ΔTM rat FAAH, 110 to 1000 nM.
On to `NC(=O)c1cccc(-c2cccc(NC(=O)N3CCN(c4ccccn4)CC3)c2)c1` [Example 9, N-(3′-carbamoyl-[1,1′-biphenyl]-3-yl)-4-(pyridin-2-yl)piperazine-1-carboxamide], for which the IC50 on Rat MAGL (rMAGL) is over 1000 nM; on Human MAGL (hMAGL), over 1000 nM; at Human FAAH (MBPΔTMhFAAH), 10 to 100 nM; on ΔTM rat FAAH, 10 to 100 nM.
With `O=C(N1C[C@@H]2C[C@H]1CN2Cc1cccc(-c2ccccc2)c1)n1cnc(-c2ccccc2)c1` [Example 99, ((1S,4S)-5-([1,1′-biphenyl]-3-ylmethyl)-2,5-diazabicyclo[2.2.1]heptan-2-yl)(4-phenyl-1H-imidazol-1-yl)methanone], the IC50 at Rat MAGL (rMAGL) is over 1000 nM; at Human MAGL (hMAGL) it was over 1000 nM; on Human FAAH (MBPΔTMhFAAH), 110 to 1000 nM; at ΔTM rat FAAH, 10 to 100 nM.
As for `N#Cc1cc(O)cc(OC(=O)N2CCN(C(c3ccccc3)c3ccccc3)CC2)c1` [Example 38, 3-cyano-5-hydroxyphenyl 4-benzhydrylpiperazine-1-carboxylate], the IC50 is over 1000 nM at Rat MAGL (rMAGL), over 1000 nM at Human MAGL (hMAGL), 110 to 1000 nM at Human FAAH (MBPΔTMhFAAH) and 110 to 1000 nM on ΔTM rat FAAH.
For `O=C(N1C[C@@H]2C[C@H]1CN2c1cccc(F)c1)n1cnc(-c2ccccc2)c1` [Example 97, ((1 S,4S)-5-(3-fluorophenyl)-2,5-diazabicyclo[2.2.1]heptan-2-yl)(4-phenyl-1H-imidazol-1-yl)methanone], the 50% inhibitory concentration (IC50) on Rat MAGL (rMAGL) is over 1000 nM; at Human MAGL (hMAGL), over 1000 nM; on Human FAAH (MBPΔTMhFAAH), 110 to 1000 nM; at ΔTM rat FAAH, 110 to 1000 nM.
As to `NC(=O)c1cccc(-c2cccc(NC(=O)N3CCN(Cc4cccc(Oc5ccccc5)c4)CC3)c2)c1` [Example 18, N-(3′-carbamoyl-[1,1′-biphenyl]-3-yl)-4-(3-phenoxybenzyl)piperazine-1-carboxamide], the IC50 is over 1000 nM at Rat MAGL (rMAGL), over 1000 nM at Human MAGL (hMAGL), 110 to 1000 nM on Human FAAH (MBPΔTMhFAAH) and 10 to 100 nM on ΔTM rat FAAH.
Take `O=C(N1CC(Sc2ccc(Br)cc2)C1)n1cncn1` [Example 91]: the IC50 on Rat MAGL (rMAGL), at Human MAGL (hMAGL), at Human FAAH (MBPΔTMhFAAH) and on ΔTM rat FAAH was 10 to 100 nM each time.
With `O=C(N1CC(N2CCC(Cc3ccccc3)CC2)C1)n1cnc(-c2ccccc2)c1` [Example 84, (3-(4-Benzylpiperidine)azetidin-1-yl)(4-phenyl[1H]imizadol-1-yl)methanone], the half-inhibitory concentration (IC50) at Rat MAGL (rMAGL) was over 1000 nM; on Human MAGL (hMAGL) it was over 1000 nM; at Human FAAH (MBPΔTMhFAAH), 10 to 100 nM; on ΔTM rat FAAH, 10 to 100 nM.
